The values below come from PMC4792557 (Oncotarget, 2015).

Assay in all cases: cells
In one assay the test system is H23. Also on record: species or system H460, A549, H358; CellTiter-Glo ATP viability of NSCLC cell lines. The following applies: Homo sapiens, NCI-H23, 48 h, read-out: AZD6738 GI50 (uM). The method, then:
(§1) ATP levels were assessed as surrogate measure of viability was assessed using the CellTiter-Glo Luminescent Cell Viability Assay (Promega) and Safire^2 plate reader (Tecan). Raw data were corrected for background luminescence prior to further analysis. […] GI50 values, defined as the dose X at which Y = 50%, were extrapolated from dose response curves. For combination treatments, data were normalized to the mean of untreated controls. Loewe excess matrices were generated using Chalice Analyzer Online (Horizon CombinatoRx) and mean normalized inhibition values. […] Log dose response curves were generated in GraphPad Prism 6 by nonlinear regression (log(inhibitor) vs. normalized response with variable slope) of log-transformed (x = log(x)), normalized data. IC50 values were calculated by Prism 6.

The next assay deals with H460. Further details: species or system H23, A549, H358; CellTiter-Glo ATP viability of NSCLC cell lines. The following applies: Homo sapiens, NCI-H460, 48 h, read-out: AZD6738 GI50 (uM). The method, then: as §1
In another assay the test system is H358. Further details: species or system H23, H460, A549; CellTiter-Glo ATP viability of NSCLC cell lines. The conditions noted are these: Homo sapiens, NCI-H358, 48 h, read-out: AZD6738 GI50 (uM). The protocol:
as §1

Another assay deals with A549. Also on record: species or system H23, H460, H358; CellTiter-Glo ATP viability of NSCLC cell lines. The conditions noted are these: Homo sapiens, A549, 48 h, read-out: AZD6738 GI50 (uM). The protocol:
as §1

With `C[C@@H]1COCCN1c1cc(C2([S@](C)(=N)=O)CC2)nc(-c2cc[nH]c3nccc2-3)n1` [AZD6738], the GI50 (in general, the concentration at which growth is held to half of that of the control) stood at 2.38 µM with H23, 1.05 µM in the assay with H460, 6.95 µM in the assay with H358 and 5.42 µM with A549.
